From US20110045477A1, “HUMAN SKIN EXPLANT CULTURE SYSTEM AND USE THEREFOR” (priority 2009, published 2011)

Columns and labels:
elastin gene expression = assay: Elastin gene expression (mRNA) by QPCR in skin explants; type: cell-based, human; conditions: 20 ng/ml
Experimental: (§1) Skin explant cultures were established as described in Example 1, using Medium 1. Explants were incubated at 37° C. in a 5% CO2 atmosphere. Skin explants either remained untreated or were treated, in Medium 1, with TGF-β, an agent known to increase elastin production. Media were refreshed daily. After predetermined time periods, the skin explants were harvested, and processed for histological, immunohistochemical, and gene expression evaluation as follows. • 1. LUNA staining was used to document elastin fibers histologically, as described in Kligman, Am. J. of Dermatopathology, 3(2): 199-201, 1981. The grading of elastin fiber quality ranged from 1-5, when 5 represented best fiber quality. • 2. Ki67 was used as a marker for cell proliferation, using immunohistochemistry techniques with a rabbit monoclonal antibody for Ki67, purchased from Thermo Scientific (Pittsburgh, Pa.). Immunohistochemistry staining was performed according to manufacturer's instructions. The grading of Ki67 ranged from 1-5, when 5 represented normal Ki67 level in the skin sample prior to culture. • 3. Levels of elastin gene expression (mRNA levels) were evaluated by QPCR. Total RNA was extracted from skin explants using Trizol (Invitrogen, Carlsbad Calif.) according to manufacturer's instructions. […]

human skin explants [1] = assay: LUNA staining of elastin fibers in skin explants; type: cell-based; conditions: 20 ng/ml in Medium 1, 37° C., grade 1-5, 5 = best fiber quality
Experimental: as §1

human skin explants [2] = assay: Ki67 immunohistochemistry (cell proliferation marker) in skin explants; type: cell-based; conditions: 20 ng/ml in Medium 1, 37° C., grade 1-5, 5 = normal level prior to culture
Experimental: as §1

[3] = system: subcutaneous adipose layer of skin explants; assay: Lipogenesis: triglyceride synthesis from C-14 acetate in subcutaneous fat of skin explants (HPTLC); type: cell-based, human; conditions: 20 μM in medium, untreated control 100%
Experimental: (§2) To examine the metabolic activity of the subcutaneous adipose layer, explant cultures were established as described in Example 1, using optimized media with 5% serum. After overnight incubation, skin explants remained untreated or were treated with 20 μM of rosiglitazone or with 50 μM of conjugated linoleic acid in the media, for the evaluation of their effect on lipogenesis and lipolysis of subcutaneous adipose layer. Explants were incubated at 37° C. in a 5% CO2 atmosphere.
For assessing lipogenesis, skin explants were cultured in medium containing 20 μM of rosiglitazone and C-14 labeled acetate for 24 hours. Subcutaneous fat was then harvested, and the levels of triglyceride were determined by HPTLC as described in (Pappas et al., JID 118 (1) 164-171, 2002).

[4] = system: subcutaneous adipose layer of skin explants; assay: Lipolysis: glycerol released into culture media of skin explants; type: cell-based, human; conditions: 50 μM in medium, untreated control 100%
Experimental: as §2
For evaluating lipolysis, skin explants were cultured in medium containing 50 μM of conjugated linoleic acid, and culture media were collected at indicated time points. The levels of glycerol released into the media were determined using the free glycerol reagent and kit (Sigma), which was used according to manufacture instruction.

TGF-β
Elastin mRNA (QPCR) (elastin gene expression; Day 5, untreated control normalized to 100%): 369% | Elastin mRNA (QPCR) (elastin gene expression; Day 7, untreated control Day 5 = 100% (Day 7 control 243%)): 423% | LUNA staining Elastin fibers (grade) (human skin explants [1]; Day 5): 3 | LUNA staining Elastin fibers (grade) (human skin explants [1]; Day 7): 4 | Ki67 Proliferation marker (grade) (human skin explants [2]; Day 5): 4 | Ki67 Proliferation marker (grade) (human skin explants [2]; Day 7): 4

CN(CCOc1ccc(CC2SC(=O)NC2=O)cc1)c1ccccn1 (centres unmarked) [Rosiglitazone, rosiglitazone]
Triglyceride synthesis at 24 hr (lipogenesis) [3]: 240-270%

conjugated linoleic acid
Glyceral release at day 3 (lipolysis) [4]: 140%
